Our source for the EC50 values is patent US11291655B2, “RAD51 inhibitors” (Cyteir Therapeutics, Inc., priority 2017, dated 2022).

A value given as a limit tells only on which side of the number the result lay.

This assay relates to Daudi Cell Culture. Kind of assay: Compound primary screening in Daudi cell culture. The format is cell-based. The settings on record: Homo sapiens, 168 h; Daudi cells, 1250 cells per well, reads on Day 7. How it is done: Compound Primary Screening
1. Materials and Supplies
Plastic ware and consumables needed for this experiment include: Cell Culture media; Evaporation Buffer media; 100% DMSO; 96 well U-bottom sterile culture plates; 250 mL bottle; 1.5 mL Opaque amber epi tubes; Epi Tube rack; 300 mL reservoirs; 25 mL reservoir; 25 mL serological pipette tips; 5 mL serological pipette tips P1000 Pipette Tips; and P200 Pipette Tips.
Equipment needed for this experiment include: Viaflo 384 liquid handler; Eppendorf serological pipette; Eppendorf P1000 Pipette; and Eppendorf P200 Pipette
Daudi Cell Culture is also needed for this experiment.
Lastly, compounds (e.g., the compounds of this invention) to be tested are needed.
All steps were performed in a sterile environment inside the Biosafety cabinet.
A 96 well u-bottom plate was prepared by writing the experiment number, plate number, date and initials in the top right corner of the plate lid. With a sterile 300 ml reservoir, and 25 ml serological pipette, evaporation buffer media was pipetted into reservoir in 25 ml increments. Using the liquid handler, 150 ul of evaporation buffer media was pipetted from reservoir into rows A and H, and Columns 1 and 12 of the 96 well u-bottom plate. Cell cultures were counted to obtain the density of cells per ml, and the culture viability. The cell density information was used to obtain 1,000,000 cells from culture using a 5 mL serological pipette into an epi tube. The cell density information from the culture was used to calculate the number of cells and volume of media needed for the assay to seed 1250 cells in 130 ul of media per available culture well in the 96 well u-bottom plate. Rows B through F were used for cells (50 wells in total), with row G left for an empty media control. The calculation was overestimated by 10 mL to account for the dead volume in the 300 ml reservoir. Once the media volume was calculated, the appropriate volume of media was pipetted in 25 mL increments into the 250 mL bottle using a 25 mL serological pipette. The 250 ml bottle was capped tightly, and placed into a 37° C. water bath for 2 minutes. While the culture media was warming, 10 mL of fresh media was pipetted from the 500 mL culture media bottle into a sterile 25 mL reservoir. Using the Eppendorf multichannel pipette, 130 ul of media was pipetted from the 25 mL reservoir into row G of the 96 well u-bottom plate. Once the 250 mL bottle of media was warmed, the volume of culture needed was pipetted into the bottle, and mixed gently with a 25 mL serological pipette as to not create bubbles, and then the contents of the bottle were pipetted into a new 300 mL reservoir. Using the liquid handler, 130 ul of culture was pipetted from the 300 mL reservoir into rows B through F of the 96 well u-bottom plate. Once the culture was added, the plate was placed into a 37° C. incubator until the compound master plate was prepared for use.
Two 96 well u-bottom plates were prepared by writing the master plate name in the upper right corner of the plate lid. Labeling one DMSO master and the other Media Master. The compounds of interest were obtained from the laboratory freezer, and placed into a 25 well storage box with a lid, and set the box aside. The compounds were vortexed after thawing but before use. Using an automatic multichannel pipette, 20 ul of 100% DMSO was pipetted into wells B3-B11 through G3-G11 of the DMSO master plate. For each compound on the master plate, 50 ul of the compound were pipetted in the appropriate well of row 2 (reference plate map to determine appropriate well). A serial dilution was prepared beginning by aspirating 20 ul from row 2 and mixing with row 3, repeating until row 11 was reached. Using the liquid handler, 194 ul of Daudi media was dispensed into wells B2-B11 through G2-G11 of the Media master plate. Using the liquid handler, 6 ul from the DMSO master plate was aspirated and dispensed into the media master plate, mixing 100 ul twice. […]
`CC(C)OC(=O)Nc1ccc(-c2ncc(-c3ccc(CNC(=O)Cc4ccccc4)cc3S(=O)(=O)NC(C)(C)C)s2)cc1` [Compound O4] yielded an EC50 of under 10 µM.

`CC(C)OC(=O)Nc1ccc(-c2ncc(-c3ccc(NC(=S)NCc4ccccc4)cc3S(=O)(=O)NC(C)(C)C)s2)cc1` [Compound L8] gave an EC50 of under 1 µM.

`CC(=O)N(C)c1ccc(-c2cnc(-c3ccc(NC(=O)OC(C)C)cc3)s2)c(S(=O)(=O)NC(C)(C)C)c1` [Compound E20] came in with an EC50 of under 10 µM.

Compound `CCS(=O)(=O)Nc1ccc(-c2ncc(-c3ccc(NC(C)=O)cc3S(=O)(=O)NC(C)(C)C)s2)cc1` [Compound G7] registered an EC50 of over 10 µM.

The compound `CC(=O)Nc1ccc(-c2cnc(-c3ccc(NC(=S)NC(C)C)cc3)s2)c(S(=O)(=O)NCCOCCO)c1` [Compound D26] yielded an EC50 of over 10 µM.

`CC(C)OC(=O)Nc1ccc(-c2ncc(-c3ccc(N4CC(Cc5ccccc5)OC4=O)cc3S(=O)(=O)NC(C)(C)C)s2)cc1` (stereo not drawn) [Compound J27, isopropyl (4-(5-(4-(5-benzyl-2-oxooxazolidin-3-yl)-2-(N-(tert-butyl)sulfamoyl)phenyl)thiazol-2-yl)phenyl)carbamate] registered an EC50 of over 10 µM.

`CC(=O)Nc1ccc(-c2cnc(-c3ccc(NC(=S)NC(C)C)cc3)s2)c(S(=O)(=O)N2CCOCC2)c1` [Compound D8] showed an EC50 of over 10 µM.

In turn, `CC(C)OC(=O)Nc1ccc(-c2ncc(-c3ccc(NCC(F)(F)F)cc3S(=O)(=O)NC(C)(C)C)s2)cc1` [Compound I3, isopropyl N-[4-[5-[2-(tert-butylsulfamoyl)-4-(2,2,2-trifluoroethylamino)phenyl]thiazol-2-yl]phenyl]carbamate] had an EC50 of under 5 µM.

Compound `CC(C)NC(=S)Nc1ccc(-c2ncc(-c3ccc(NC(=O)NCc4ccccc4)cc3S(=O)(=O)NC(C)(C)C)s2)cc1` [Compound L10] yielded an EC50 of under 5 µM.

The compound `CC(C)OC(=O)Nc1ccc(-c2ncc(-c3ccc(N4CC(c5ccccc5)OC4=O)cc3S(=O)(=O)NC(C)(C)C)s2)cc1` (stereo not drawn) [Compound J29, isopropyl N-[4-[5-[2-(tert-butylsulfamoyl)-4-(2-oxo-5-phenyl-oxazolidin-3-yl)-phenyl]thiazol-2-yl]phenyl]carbamate] came in with an EC50 of over 10 µM.

Regarding `CC(C)OC(=O)Nc1ccc(-c2ncc(-c3ccc(CNC(=O)C(C)(C)C)cc3S(=O)(=O)NC(C)(C)C)s2)cc1` [Compound P3], the EC50 is over 10 µM.

For `COc1cc(-c2ncc(-c3ccc(N4CCCC4=O)cc3S(=O)(=O)NC(C)(C)C)s2)ccc1NC(=O)OC(C)C` [Compound J16], the EC50 was under 10 µM.

Consider `CC(C)NC(=O)Nc1ccc(-c2ncc(-c3ccc(N4CCCC4=O)cc3S(=O)(=O)NC(C)(C)C)s2)cc1` [Compound J7], for which the concentration giving a half-maximal response (EC50) is under 10 µM.

Compound `CC(C)OC(=O)Nc1ccc(-c2ncc(-c3ccc(CNC(=O)C(C)C)cc3S(=O)(=O)NC(C)(C)C)s2)cc1` [Compound P2] showed an EC50 of under 5 µM.

Take `CC(=O)Nc1ccc(-c2cnc(-c3ccc(NC(=S)NC(C)C)cc3)s2)c(S(=O)(=O)N2CCNCC2)c1` [Compound A3]: the EC50 is under 5 µM.

Compound `CC(C)OC(=O)Nc1ccc(-c2ncc(-c3ccc(C(N)=O)cc3S(=O)(=O)NC(C)(C)C)s2)cc1` [Compound I6] came in with an EC50 of under 5 µM.

Turning to `COC(=O)Nc1ccc(-c2cnc(-c3ccc(NC(=S)NC(C)C)cc3)s2)c(S(=O)(=O)NC(C)(C)C)c1` [Compound L7], the concentration for a half-maximal effect (EC50) was over 10 µM.

`CC(C)NC(=S)Nc1ccc(-c2ncc(-c3ccc(NC(=O)NCc4ccncc4)cc3S(=O)(=O)NC(C)(C)C)s2)cc1` [Compound M2] displayed an EC50 of under 5 µM.

For `CC(C)NC(=S)Nc1ccc(-c2ncc(-c3ccc(NC(=O)NCc4ccccn4)cc3S(=O)(=O)NC(C)(C)C)s2)cc1` [Compound M4], the EC50 was under 10 µM.

Take `CNC(=O)c1ccc(-c2cnc(-c3ccc(NC(=O)OC(C)C)cc3)s2)c(S(=O)(=O)NC(C)(C)C)c1` [Compound I5]: the EC50 was under 5 µM.

In turn, `CC(=O)Nc1ccc(-c2cnc(-c3ccc(NC(=O)OC(C)C)cc3)s2)c(S(=O)(=O)NC(C)(C)C)c1` [Compound E11] yielded an EC50 of under 5 µM.

The EC50 is the midpoint of the concentration-response curve.
